Test results published in ChEMBL document CHEMBL5050844 (2019).

Key:
[1] = Induction of anti-CD3 antibodies-stimulated human T cell activation at 1 uM assessed fold increase in CD25 expression measured by ELISA assay; type: functional, T cell line; also: reference of the scale not given here
[2] = Induction of anti-CD3/CD28 antibodies-stimulated human T cell activation at 1 uM assessed fold increase in CD25 expression measured by ELISA assay; type: functional, T cell line
[3] = Induction of anti-CD3/CD28 antibodies-stimulated human T cell activation at 1 uM assessed fold increase in IL-2 secretion measured by ELISA assay; type: functional, T cell line
[4] = Induction of anti-CD3/CD28 antibodies-stimulated human T cell activation at 0.3 uM assessed fold increase in IL-2 secretion measured by ELISA assay; type: functional, T cell line
[5] = Induction of anti-CD3/CD28 antibodies-stimulated human T cell activation at 0.3 uM assessed fold increase in CD25 expression measured by ELISA assay; type: functional, T cell line
[6] = Induction of anti-CD3 antibodies-stimulated human T cell activation at 1 uM assessed fold increase in IL-2 secretion measured by ELISA assay; type: functional, T cell line; also: reference of the scale not given here
[7] = biological target: E3 ubiquitin-protein ligase CBL-B (Homo sapiens, UniProt Q13191); experiment: Inhibition of N-terminal Avi-tagged human CBL-B (36 to 427 residues) incubated with 60 nM Src kinase for 1.5 hrs followed by incubation with fluorescently labeled UbcH5B-Ub for 1 hr and measured by TR-FRET assay; type: single protein
Sequence of E3 ubiquitin-protein ligase CBL-B (Q13191 whole entry, the tested form may be a part): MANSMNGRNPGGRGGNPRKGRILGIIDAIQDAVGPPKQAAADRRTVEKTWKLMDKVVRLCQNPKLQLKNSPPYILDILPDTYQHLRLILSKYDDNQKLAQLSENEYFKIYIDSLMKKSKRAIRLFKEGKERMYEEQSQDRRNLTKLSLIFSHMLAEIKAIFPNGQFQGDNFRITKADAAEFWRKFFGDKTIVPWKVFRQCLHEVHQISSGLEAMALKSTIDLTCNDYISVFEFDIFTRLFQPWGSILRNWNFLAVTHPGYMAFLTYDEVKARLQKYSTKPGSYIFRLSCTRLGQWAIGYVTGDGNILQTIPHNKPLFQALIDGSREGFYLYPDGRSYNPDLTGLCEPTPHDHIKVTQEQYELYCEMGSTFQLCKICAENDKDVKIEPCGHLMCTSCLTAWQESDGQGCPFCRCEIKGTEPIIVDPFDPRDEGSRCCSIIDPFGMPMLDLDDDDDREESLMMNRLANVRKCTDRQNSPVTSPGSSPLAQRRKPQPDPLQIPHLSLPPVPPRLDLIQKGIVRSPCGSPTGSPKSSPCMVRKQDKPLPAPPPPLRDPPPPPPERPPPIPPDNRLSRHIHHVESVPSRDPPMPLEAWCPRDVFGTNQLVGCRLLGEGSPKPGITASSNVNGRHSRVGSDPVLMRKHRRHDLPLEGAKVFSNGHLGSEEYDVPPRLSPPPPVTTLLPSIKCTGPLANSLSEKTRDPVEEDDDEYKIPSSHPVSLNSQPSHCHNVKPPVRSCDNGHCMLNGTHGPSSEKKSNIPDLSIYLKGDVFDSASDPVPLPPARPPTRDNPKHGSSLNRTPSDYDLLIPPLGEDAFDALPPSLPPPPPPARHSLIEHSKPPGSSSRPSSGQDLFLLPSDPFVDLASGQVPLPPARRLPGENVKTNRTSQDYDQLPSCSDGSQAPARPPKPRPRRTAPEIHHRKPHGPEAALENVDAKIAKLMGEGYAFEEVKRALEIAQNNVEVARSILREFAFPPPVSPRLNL

| Structure (SMILES) | fold change (FC) [1] | fold change (FC) [2] | fold change (FC) [3] | fold change (FC) [4] | fold change (FC) [5] | fold change (FC) [6] | IC50 [7] [nM] |
| --- | --- | --- | --- | --- | --- | --- | --- |
| CC(c1cc(C(=O)Nc2cccc(C3(Cc4nncn4C)COC3)c2)nc(C2CC2)n1)N1CCC2(CC2)C1 (single isomer, unassigned; 592a) | >=1.001 | 1.01 | >=7.5 | 5 | 1.01 | >=0.201 | < 100 |
| CN1CC[C@@H](O)[C@H](Cc2cc3c(c(C(F)(F)F)c2)CN(c2cccc(C4(Cc5nncn5C)COC4)c2)C3=O)C1 (relative stereo) | 0.801 | 1.01 | 2.51 | 1.01 | 1.01 | 0.101 | < 100 |
| Cn1cnnc1CC1(c2cccc(N3Cc4c(cc(CN5CCOCC5)cc4C(F)(F)F)C3=O)c2)COC1 | >=1.001 | 1.31 | >=7.5 | 2.51 | 1.31 | >=0.201 | < 100 |
| Cn1cnnc1[C@H](F)C1(c2cccc(N3Cc4c(cc(CN5CCCC5)cc4C(F)(F)F)C3=O)c2)COC1 | >=1.001 | 1.31 | >=7.5 | >=7.5 | 1.31 | >=0.201 | < 100 |
| Cn1cnnc1CC1(c2cccc(N3Cc4c(cc(CN5CCC(F)(F)CC5)cc4C(F)(F)F)C3=O)c2)COC1 | >=1.001 | 1.31 | >=7.5 | >=7.5 | 1.31 | >=0.201 | < 100 |
| Cn1cnnc1CC1(c2cccc(NC(=O)c3cc(OC(F)F)cc(C4CC4)n3)c2)COC1 | >=1.001 | 1.01 | >=7.5 | 5 | 1.01 | >=0.201 | < 100 |
| CN1CCC(=O)C(Cc2cc3c(c(C(F)(F)F)c2)CN(c2cccc(C4(Cc5nncn5C)COC4)c2)C3=O)C1 (stereo not drawn) | >=1.001 | 1.01 | >=7.5 | >=7.5 | 1.01 | >=0.201 | < 100 |
| Cn1cnnc1CC1(c2cccc(N3Cc4c(cc(CN5CCCc6c5cnn6C)cc4C(F)(F)F)C3=O)c2)COC1 | >=1.001 | 1.01 | >=7.5 | 5 | 1.01 | >=0.201 | < 100 |
| Cn1cnnc1CC1(c2cccc(N3Cc4c(cc(N5CCN6CCC[C@H]6C5)cc4C(F)(F)F)C3=O)c2)COC1 | >=1.001 | >=1.76 | >=7.5 | >=7.5 | >=1.76 | >=0.201 | < 100 |
